Common to all, as to assay type: cell-based
The test system of experiment [1] is M. abscessus DCI #21. Nature of the experiment: MIC, resazurin microtiter assay. The settings on record: Mycobacteroides abscessus; Mueller Hinton II; read-out: MIC M. abscessus DCI #21.
For experiment [2], the system named is M. smegmatis mc^2155. Nature of the experiment: MIC, resazurin microtiter assay. The following applies: Mycolicibacterium smegmatis, MC^2155, 7H9-ADC-0.05% Tween 80; read-out: MIC M. smeg. mc^2155. For orientation: Resazurin is reduced to fluorescent resorufin, in cell work by metabolically active cells.
Experiment [3] relates to M. bolletii ATCC 14472. Description: MIC, resazurin microtiter assay. The settings on record: Mycobacteroides abscessus, ATCC14472, Mueller Hinton II; read-out: MIC M. bolletii ATCC 14472.
The subject of experiment [4] is M. abscessus ATCC 19977. Description: MIC, resazurin microtiter assay. The settings on record: Mycobacteroides abscessus, ATCC19977; Mueller Hinton II; read-out: MIC M. abscessus ATCC 19977.
Experiment [5] relates to M. chelonae ATCC 35752. Nature of the experiment: MIC, resazurin microtiter assay. The following applies: Mycobacteroides chelonae, ATCC35752, Mueller Hinton II; read-out: MIC M. chelonae ATCC 35752.
Experiment [6] deals with M. massiliense CRM 0019. Description: MIC, resazurin microtiter assay. The settings on record: Mycobacteroides abscessus, CRM0019, Mueller Hinton II; read-out: MIC M. massiliense CRM 0019.
Experiment [7] concerns M. tuberculosis H37Rv mc^26206. Description: microbe, parasite or virus in culture. The following applies: Mycobacterium tuberculosis, H37RV; read-out: MIC M. tb H37 Rv (mc2-6206).
Experiment [8] concerns M. massiliense CIP 108297. Description: MIC, resazurin microtiter assay. The settings on record: Mycobacteroides abscessus, CIP108297, Mueller Hinton II; read-out: MIC M. massiliense CIP 108297.
For experiment [9], the system named is M. xenopi WT. Description: MIC, resazurin microtiter assay. The settings on record: Mycobacterium xenopi, Mueller Hinton II; read-out: MIC M. xenopi WT.
The subject of experiment [10] is M. intracellulare 1956. Nature of the experiment: MIC, resazurin microtiter assay. The settings on record: Mueller Hinton II; read-out: MIC M. avium Intracellulare 1956.
Experiment [11] deals with M. avium 104. Description: MIC, resazurin microtiter assay. The following applies: Mycobacterium avium, 104; Mueller Hinton II; read-out: MIC M. avium 104.

Values after ≈ are worked out from the molar mass of the structure shown. Bounds are passed on as bounds.

As for `O=C(NC1CCCCCC1)c1cc2ccccc2[nH]1` [Compound 11, N-cycloheptyl-1H-indole-2-carboxamide], the MIC in experiment [1] is above 32 µg/mL; in experiment [2] it was above 20 µg/mL; in experiment [3] it was above 32 µg/mL; in experiment [4] it was above 32 µg/mL; in experiment [5], above 32 µg/mL; in experiment [6] it was above 32 µg/mL. Besides, the MIC in [7] is above 5 µg/mL; in [8], above 32 µg/mL.

In the case of `O=C(NC1CCCCC1)c1cc2ccccc2[nH]1` [Compound 12, N-cyclohexyl-1H-indole-2-carboxamide], the MIC is above 32 µg/mL in experiment [1]; above 25 µg/mL in [2]; above 32 µg/mL in [3]; above 32 µg/mL in experiment [4]; above 32 µg/mL in experiment [5]; above 32 µg/mL in experiment [6]. Besides, the MIC in experiment [7] was above 10 µg/mL; in experiment [8], above 32 µg/mL.

Turning to `O=C(NC1CCCC1)c1cc2ccccc2[nH]1` [Compound 13, N-cyclopentyl-1H-indole-2-carboxamide], the MIC was above 32 µg/mL in experiment [1]; above 25 µg/mL in experiment [2]; above 32 µg/mL in experiment [3]; above 32 µg/mL in experiment [4]; above 32 µg/mL in experiment [5]; above 32 µg/mL in [6]. For the same molecule, the MIC in experiment [7] was above 10 µg/mL; in experiment [8], above 32 µg/mL.

Consider `CC1CCC(NC(=O)c2cc3ccccc3[nH]2)CC1` (centres unmarked) [Compound 14, N-((1s,4s)-4-methylcyclohexyl)-1H-indole-2-carboxamide], for which the MIC in experiment [1] is above 32 µg/mL; in [2], above 25 µg/mL; in [3], above 32 µg/mL; in experiment [4], above 32 µg/mL; in [5], above 32 µg/mL; in experiment [6], above 32 µg/mL. Besides, the MIC in experiment [7] is above 10 µg/mL; in experiment [8], above 32 µg/mL.

For `CCCCCCCNC(=O)c1cc2ccccc2[nH]1` [Compound 17, N-heptyl-1H-indole-2-carboxamide], the MIC in [1] was above 32 µg/mL; in [2] it was above 25 µg/mL; in experiment [3] it was above 32 µg/mL; in experiment [4], above 32 µg/mL; in [5], above 32 µg/mL; in [6], above 32 µg/mL. For the same molecule, the MIC was above 10 µg/mL in experiment [7] and above 32 µg/mL in experiment [8].

Regarding `CCCCCCCCNC(=O)c1cc2ccccc2[nH]1` [Compound 18, N-octyl-1H-indole-2-carboxamide], the MIC in [1] was above 32 µg/mL; in experiment [2] it was above 25 µg/mL; in [3], above 32 µg/mL; in experiment [4], above 32 µg/mL; in [5], above 32 µg/mL; in experiment [6] it was above 32 µg/mL. Also, the MIC was above 10 µg/mL in [7] and above 32 µg/mL in experiment [8].

Take `O=C(NCc1cccc(Cl)c1)c1cc2ccccc2[nH]1` [Compound 19, N-(3-chlorobenzyl)-1H-indole-2-carboxamide]: the MIC in experiment [1] is above 32 µg/mL; in [2] it was above 20 µg/mL; in [3], above 32 µg/mL; in experiment [4], above 32 µg/mL; in [5] it was above 32 µg/mL; in experiment [6], above 32 µg/mL. The MIC in [7] was above 5 µg/mL; in experiment [8], above 32 µg/mL.

Turning to `Cc1cc(C)c2cc(C(=O)NC34CC5CC(CC(C5)C3)C4)[nH]c2c1` [Compound 20, N-1-adamantyl-4,6-dimethyl-1H-indole-2-carboxamide], the MIC in experiment [1] is 32 µg/mL (≈ 99.2 µM); in experiment [2] it was 1.25 to 2.5 µg/mL (≈ 3.88 to 7.75 µM); in experiment [3] it was above 32 µg/mL; in experiment [9], above 32 µg/mL; in experiment [4] it was above 32 µg/mL; in experiment [5] it was above 32 µg/mL. Besides, the MIC in experiment [6], in experiment [10], in experiment [8] and in experiment [11] was above 32 µg/mL in each case.

`CCC12CC3CC(C1)CC(NC(=O)c1cc4c(C)cc(C)cc4[nH]1)(C3)C2` [Compound 21, N-(3-ethyl-1-adamantyl)-4,6-dimethyl-1H-indole-2-carboxamide]: the MIC in [1] was above 32 µg/mL; in experiment [2], above 20 µg/mL; in experiment [3], above 32 µg/mL; in experiment [9] it was above 32 µg/mL; in experiment [4], above 32 µg/mL; in [5], above 32 µg/mL. Further, the MIC in [6], in experiment [10], in experiment [8] and in experiment [11] was above 32 µg/mL throughout.

For the molecule `Cc1cc(C)c2cc(C(=O)NC(C)C34CC5CC(CC(C5)C3)C4)[nH]c2c1` (centres unmarked) [Compound 22, N-(1-(1-adamantyl)ethyl)-4,6-dimethyl-1H-indole-2-carboxamide], the MIC in experiment [1] is above 32 µg/mL; in [2] it was above 20 µg/mL; in [3], 16 µg/mL (≈ 45.6 µM); in [9], above 32 µg/mL; in experiment [4] it was 16 µg/mL (≈ 45.6 µM); in experiment [5] it was 16 µg/mL (≈ 45.6 µM). The MIC in experiment [6] was 8 µg/mL (≈ 22.8 µM); in experiment [10] it was above 32 µg/mL; in experiment [8] it was 8 µg/mL (≈ 22.8 µM); in experiment [11] it was above 32 µg/mL.

In the case of `Cc1cc(C)c2cc(C(=O)NCC34CC5CC(CC(C5)C3)C4)[nH]c2c1` [Compound 23, N-(1-(1-adamantyl)methyl)-4,6-dimethyl-1H-indole-2-carboxamide], the MIC is above 32 µg/mL in [1]; above 20 µg/mL in [2]; above 32 µg/mL in experiment [3]; 1 µg/mL (≈ 2.97 µM) in experiment [9]; above 32 µg/mL in experiment [4]; above 32 µg/mL in [5]. Further, the MIC in experiment [6], in [10], in experiment [8] and in experiment [11] was above 32 µg/mL throughout.

`Cc1cc(C)c2cc(C(=O)NC3C4CC5CC(C4)CC3C5)[nH]c2c1` (centres unmarked) [Compound 24, N-2-adamantyl-4,6-dimethyl-1H-indole-2-carboxamide]: the MIC in experiment [1] is above 32 µg/mL; in [2], above 20 µg/mL; in [3], above 32 µg/mL; in [9], 0.5 to 1 µg/mL (≈ 1.55 to 3.1 µM); in experiment [4], above 32 µg/mL; in experiment [5], above 32 µg/mL. The MIC in [6], in experiment [10], in experiment [8] and in experiment [11] was above 32 µg/mL each time.

As to `Cc1cc(C)c2cc(C(=O)NC3CCCCC3)[nH]c2c1` [Compound 27, N-cyclohexyl-4,6-dimethyl-1H-indole-2-carboxamide], the MIC was 0.25 µg/mL (≈ 0.925 µM) in experiment [1]; 2.5 µg/mL (≈ 9.25 µM) in [2]; 0.25 µg/mL (≈ 0.925 µM) in experiment [3]; 1 to 2 µg/mL (≈ 3.7 to 7.4 µM) in experiment [9]; 0.5 µg/mL (≈ 1.85 µM) in experiment [4]; 0.25 µg/mL (≈ 0.925 µM) in [5]. Further, the MIC in experiment [6] is 0.25 µg/mL (≈ 0.925 µM); in experiment [10], above 32 µg/mL; in experiment [8], 0.25 µg/mL (≈ 0.925 µM); in [11] it was above 32 µg/mL.

With `Cc1cc(C)c2cc(C(=O)NC3CCC(C)CC3)[nH]c2c1` (centres unmarked) [Compound 29, 4,6-dimethyl-N-((1s,4s)-4-methylcyclohexyl)-1H-indole-2-carboxamide], the MIC in experiment [1] was at most 0.06 µg/mL; in experiment [2], above 20 µg/mL; in experiment [3] it was at most 0.06 µg/mL; in [9] it was 0.25 to 1 µg/mL (≈ 0.879 to 3.52 µM); in experiment [4], at most 0.06 µg/mL; in experiment [5], at most 0.06 µg/mL. Further, the MIC was at most 0.06 µg/mL in experiment [6], above 32 µg/mL in experiment [10], at most 0.06 µg/mL in [8] and above 32 µg/mL in experiment [11].

As for `Cc1cc(C)c2cc(C(=O)NCc3cccc(Cl)c3)[nH]c2c1` [Compound 34, N-(3-chlorobenzyl)-4,6-dimethyl-1H-indole-2-carboxamide], the MIC in experiment [1] was above 32 µg/mL; in [2] it was above 20 µg/mL; in [3], above 32 µg/mL; in experiment [4], above 32 µg/mL; in experiment [5], above 32 µg/mL; in experiment [6] it was above 32 µg/mL. Further, the MIC in experiment [7] is above 5 µg/mL; in experiment [8] it was above 32 µg/mL.

These data come from patent publication US10383848B2, “Indole-based therapeutics” (Creighton University, priority 2016, dated 2019).
